Test results from patent publication US6664231B1, “Anti-fungal peptides” (priority 1993, dated 2003).
Square brackets hold non-standard residues; d marks the D form. Ends that are not written are not given here. Peptide text beside a SMILES is read from it. * marks the point of attachment. Phe(4-NH2) = Nc1ccc(C[C@H](N)C(=O)O)cc1; d2Nal = N[C@H](Cc1ccc2ccccc2c1)C(=O)O; pGlu = O=C1CC[C@@H](C(=O)O)N1; Octanoyl = CCCCCCCC(=O)*; Dab = NCC[C@H](N)C(=O)O

What was measured:
[1] = tested on: C. albicans (CA-1, Strain SLU-1); assay: Radial diffusion assay; format: cell-based, Candida albicans; conditions: pmoles of peptide added to well to achieve a 30 mm^2 zone, PROBIT analysis, crude or purified (P′) peptide
Outline: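 Yeast at 1×10^6 CFU/mL in agarose underlayer (3% Sabouraud, 10 mM sodium phosphate pH 7.4); 2-fold peptide dilutions in D-PBS from ~1 mg/mL loaded into wells, 3 h at 37° C, then nutrient overlayer overnight. Value: pmol/well giving 30 mm^2 net clear zone, by PROBIT regression.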

[2] = Serum stability, anti-fungal activity after serum incubation by radial diffusion bioassay; format: in vitro ADME, rat or human serum; conditions: Activity in Serum t ½ (hr.)
Experimental: (§1) For these serum stability experiments, peptides were prepared by solid phase peptide sythesis and purified to 94% or greater purity as described in Example 1. Blood was collected from metaphane anesthesized rats by aortic bleed into Vacutainer™ tubes and allowed to clot at room temperature for approximately 30 minutes, then centrifuged at 3000 rpm (about 1000×g) for 10 minutes at room temperature and the serum aspirated. In addition, frozen human serum (North American Biologics, Inc., Miami, Fla., cat. no. 2140, lot no. 94115) was thawed at room temperature and filtered through a 0.45 μm membrane before use.
(§2) A 1 mg/mL solution of an exemplary XMP peptide to be tested was added to an equal volume of either rat or human serum described above and maintained at 37° C. At 0, 1, 2, and 4 hours, 100 μL were removed and processed by solid phase extraction for HPLC analysis as follows. Serum samples were prepared for HPLC using C-18 Sep-Pak cartridges (1 mL cartridge with 100 mg of sorbent, Waters Corp., Milford, Mass.). One hundred μL of serum sample were added to an equal volume of 1% TFA and mixed for 30 seconds on a Vortex mixer. The sample was then applied to a C-18 Sep-Pak cartridge that had been conditioned by washing with 1 mL of methanol followed by 1 mL Milli-Q water. Weakly reed components were eluted by washing with 1 mL of 0. 1% TFA. The bound peptide was eluted with two volumes of 250 μL 80% acetonitrile/0.065% TFA.
The peptides identified and purified after serum incubation as described above were subjected to N-terminal peptide sequencing performed on an Applied Biosystems Model 477A/120A sequencer and to electrospray ionization mass spectrometry (ESI/MS) performed using a VG Biotech Bio-Q Mass Spectrometer. In addition, the peptides identified and purified after serum incubation as described above were also tested for their anti-fungal activity in a radial diffusion bioassay with Candida albicans SLU-1 strain as described in Example 2.

in vitro = in vitro ADME, rat or human serum; conditions: serum, half-life of peptide in serum as detected by HPLC analysis; read-out: HPLC Peptide in Serum t ½ (converted)
Experimental: as §1, §2
The material eluted from the Sep-Pak cartridge was analyzed on a Michrom Ultaafast Microprotein Analyzer equipped with a 150 mm×1 mm, 5μ particle, 300 Å pore C-8 Zorbax column. The column oven was set to 40° C., the flow rate was 100 μL/minute, and injection volumes were typically 5-10 μL. HPLC was performed using 5% acetonitrile/0.1% TFA in water as mobile phase A, and 80% acetonitrile/0.065% TFA as mobile phase B. The eluate was monitored spectiophotometrically at 214 nm. Peptide standards were dissolved in mobile phase A at 0. 1 mg/mL. The gradient was 25-35% B/10 minutes followed by a 5 minute wash step of 100% B and reequilibration at 25% B for 10 minutes.

mouse RAW 264.7 cells = conditions: RAW 264.7 cell growth inhibited by 50%
Experimental: (§3) An in vitro LPS neutralization screening assay for evaluation of Domain III derived peptides was developed (as described in co-owned and co-pending U.S. patent application Ser. No. 08/306,473) which provides both a measure of efficacy of each peptide (EC50) and of the toxicity/growth inhibition of each peptide (IC50).
(§4) The cells were counted and their concentration adjusted to 2×10^5 cells/mL and 100 μL aliquots were added to each well of a 96-well microtitre plate. […] This incubation was performed in the absence or presence of peptides in varying concentrations between 25 ng/mL and 50 μg/mL. […] Cell proliferation was quantitatively measured by the addition of 1 μCi/well [^3H]-thymidine 5 hours after the time of initiation of the assay. After the 15-hour incubation, labeled cells were harvested onto glass fiber filters with a cell harvester (Inotech Biosystems, INB-384, Sample Processing and Filter Counting System, Lansing, Mich.).

[3] = tested on: mouse RAW 264.7 cells incubated with E. coli O113 LPS; conditions: RAW 264.7 cells with E. coli O113 LPS; concentration reversing LPS growth inhibition by 50%
Experimental: as §3, §4

Molecule | C. albicans pmol/30 mm^2 zone [1] | half-life at 0.5 mg/mL [2] [h] | IC50 (toxicity/growth inhibition of peptide) (mouse RAW 264.7 cells) | In Vitro LPS Neutralization EC50 [3] | further results
CC[C@H](C)[C@H](NC(=O)[C@H](CC(C)C)NC(=O)[C@H](Cc1ccc(N)cc1)NC(=O)CNC(=O)[C@@H](NC(=O)[C@H](CCCCN)NC(=O)[C@H](CO)NC(=O)[C@@H](N)CCCCN)C(C)C)C(=O)N[C@@H](CCC(N)=O)C(=O)N[C@@H](CC(C)C)C(=O)N[C@@H](Cc1ccccc1)C(=O)N[C@@H](Cc1c[nH]cn1)C(=O)N[C@@H](CCCCN)C(=O)N[C@@H](CCCCN)C(N)=O [XMP.133] (H-KSKVG[Phe(4-NH2)]LIQLFHKK-NH2) | 284 pmol/30 mm^2 zone | 14 |  |  | 
CC[C@H](C)[C@H](NC(=O)[C@H](CC(C)C)NC(=O)[C@H](Cc1c[nH]c2ccccc12)NC(=O)[C@H](CCCCN)NC(=O)[C@H]1CCCN1)C(=O)N[C@@H](CCC(N)=O)C(=O)N[C@@H](CC(C)C)C(=O)N[C@@H](CCCCN)C(=O)N[C@@H](CCCCN)C(N)=O [XMP.334] | 1,449 pmol/30 mm^2 zone | 4.7 |  |  | C. albicans pmol/30 mm^2 zone ([1]; listed as XMP.334P′): 1,065 pmol/30 mm^2 zone; half-life at 0.5 mg/mL (in vitro): 3.2 h
CC[C@H](C)[C@H](NC(=O)[C@H](CC(C)C)NC(=O)[C@H](Cc1c[nH]c2ccccc12)NC(=O)[C@H](CCCCN)NC(=O)[C@@H]1CCCN1)C(=O)N[C@@H](CCC(N)=O)C(=O)N[C@@H](CC(C)C)C(=O)N[C@@H](CCCCN)C(=O)N[C@@H](CCCCN)C(N)=O [XMP.335] | 871 pmol/30 mm^2 zone | 1.3 |  |  | C. albicans pmol/30 mm^2 zone ([1]; listed as XMP.335P′): 1,353 pmol/30 mm^2 zone; half-life at 0.5 mg/mL (in vitro): 2.9 h
CC[C@H](C)[C@H](NC(=O)[C@H](CC(C)C)NC(=O)[C@H](Cc1c[nH]c2ccccc12)NC(=O)[C@H](CCCN)NC(=O)[C@@H](N)CCCN)C(=O)N[C@@H](CCC(N)=O)C(=O)N[C@@H](CC(C)C)C(=O)N[C@@H](CCCN)C(=O)N[C@@H](CCCN)C(N)=O [XMP.338] | 1,194 pmol/30 mm^2 zone | 4.7 |  |  | 
CC[C@H](C)[C@H](NC(=O)[C@H](CC(C)C)NC(=O)[C@@H](Cc1ccc2ccccc2c1)NC(=O)[C@H](CCCCN)NC(=O)[C@@H](N)CCCCN)C(=O)N[C@@H](CC(C)C)C(=O)N[C@@H](CC(C)C)C(=O)N[C@@H](CCCCN)C(=O)N[C@@H](CCCCN)C(N)=O [XMP.347] (H-KK[d2Nal]LILLKK-NH2) | 391 pmol/30 mm^2 zone | 5.2 |  |  | half-life at 0.5 mg/mL (in vitro): 2.5 h
CC[C@H](C)[C@H](NC(=O)[C@H](CC(C)C)NC(=O)[C@H](Cc1c[nH]c2ccccc12)NC(=O)[C@@H](N)CCCCN)C(=O)N[C@@H](CCN)C(=O)N[C@@H](CC(C)C)C(=O)N[C@@H](Cc1ccccc1)C(=O)N[C@@H](Cc1c[nH]cn1)C(=O)N[C@@H](CCCCN)C(=O)N[C@@H](CCCCN)C(N)=O [XMP.371] (H-KWLI[Dab]LFHKK-NH2) | 843 pmol/30 mm^2 zone | 0.9 |  |  | C. albicans pmol/30 mm^2 zone ([1]; listed as XMP.371P′): 523 pmol/30 mm^2 zone
CCCCCCCC(=O)N[C@@H](CCCCN)C(=O)N[C@@H](CCCCN)C(=O)N[C@@H](Cc1c[nH]c2ccccc12)C(=O)N[C@@H](C)C(=O)N[C@H](C(=O)N[C@@H](CCC(N)=O)C(=O)N[C@@H](CC(C)C)C(=O)N[C@@H](CCCCN)C(=O)N[C@@H](CCCCN)C(N)=O)[C@@H](C)CC [XMP.410] (Octanoyl-KKWAIQLKK-NH2) | 599 pmol/30 mm^2 zone | 2.9 | NA (NA for IC50 means no evidence of decreased RAW cell growth at up to 50 μg/ml) | >25 µg/mL | 
Ac-PWLIQLFHKK-NH2 [XMP.356] | 550 pmol/30 mm^2 zone | 0.9 |  |  | 
H-KKKWAIQLKK-NH2 [XMP.377] | 146 pmol/30 mm^2 zone | 1.8 |  |  | 
H-KKKWLIQLKK-NH2 [XMP.348] | 284 pmol/30 mm^2 zone | 5.5 |  |  | 
H-KKLLLLLKK-NH2 [XMP.385] | 127 pmol/30 mm^2 zone | 2.7 |  |  | 
H-KKLQLLLKK-NH2 [XMP.381] | 391 pmol/30 mm^2 zone | 0.8 |  |  | 
H-KKWLIQLFHKP-NH2 [XMP.358] | 550 pmol/30 mm^2 zone | 1.6 |  |  | 
H-KKWLIQLFKK-NH2 [XMP.351] | 385 pmol/30 mm^2 zone | 0.4 |  |  | 
H-KWLIQLFHKP-NH2 [XMP.357] | 204 pmol/30 mm^2 zone | 0.8 |  |  | 
H-SKWAIQLKK-NH2 [XMP.409P] |  |  | NA (NA for IC50 means no evidence of decreased RAW cell growth at up to 50 μg/ml) | NA (NA for EC50 means no evidence neutralization of LPS at up to 50 μg/ml) | 
KKKWAIQLKK-NH2 [XMP.377P] |  |  | NA (NA for IC50 means no evidence of decreased RAW cell growth at up to 50 μg/ml) | NA (NA for EC50 means no evidence neutralization of LPS at up to 50 μg/ml) | 
KKLLLLQKK-NH2 [XMP.384P] |  |  | NA (NA for IC50 means no evidence of decreased RAW cell growth at up to 50 μg/ml) | NA (NA for EC50 means no evidence neutralization of LPS at up to 50 μg/ml) | 
KKPWAIQLKK-NH2 (C-terminus assumed) [XMP.379P] |  |  | NA (NA for IC50 means no evidence of decreased RAW cell growth at up to 50 μg/ml) | NA (NA for EC50 means no evidence neutralization of LPS at up to 50 μg/ml) | 
KKWAIQLKK-NH2 (C-terminus assumed) [XMP.344P] |  |  | NA (NA for IC50 means no evidence of decreased RAW cell growth at up to 50 μg/ml) | >25 µg/mL | 
KKWLIQLFKK-NH2 [XMP.351P] |  |  | NA (NA for IC50 means no evidence of decreased RAW cell growth at up to 50 μg/ml) | 8.47 ± 0.71 µg/mL | 
KWAIQLFHKK-NH2 [XMP.386P] |  |  | NA (NA for IC50 means no evidence of decreased RAW cell growth at up to 50 μg/ml) | 9.75 ± 1.02 µg/mL | 
PWAIQLFHKK-NH2 (C-terminus assumed) [XMP.387P] |  |  | NA (NA for IC50 means no evidence of decreased RAW cell growth at up to 50 μg/ml) | 15.53 ± 2.18 µg/mL | 
XMP.341P ([pGlu][pGlu]WLIQL[pGlu][pGlu]; not fully specified) |  |  | NA/NA (NA for IC50 means no evidence of decreased RAW cell growth at up to 50 μg/ml) | >50 µg⁻¹ mL⁻¹ | 
